Among the data in patent US9969749B2, “Inhibitors of IRAK4 activity” (MERCK SHARP & DOHME CORP., priority 2014, dated 2018) are IC50 values, retold here.

pIC50: −log10 of the molar value.

IRAK4, sequence (Q9NWZ3 whole entry): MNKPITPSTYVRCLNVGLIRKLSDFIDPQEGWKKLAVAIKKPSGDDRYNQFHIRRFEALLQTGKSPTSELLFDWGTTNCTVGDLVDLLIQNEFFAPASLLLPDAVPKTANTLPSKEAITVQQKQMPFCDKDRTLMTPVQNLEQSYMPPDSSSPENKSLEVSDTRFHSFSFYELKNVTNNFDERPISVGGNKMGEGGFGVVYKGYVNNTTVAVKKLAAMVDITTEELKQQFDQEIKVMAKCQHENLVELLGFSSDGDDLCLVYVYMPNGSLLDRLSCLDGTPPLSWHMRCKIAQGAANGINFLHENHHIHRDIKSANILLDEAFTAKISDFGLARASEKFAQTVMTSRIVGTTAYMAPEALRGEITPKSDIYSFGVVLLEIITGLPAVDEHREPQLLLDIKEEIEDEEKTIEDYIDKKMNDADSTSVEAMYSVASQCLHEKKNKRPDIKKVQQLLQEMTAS

The test concerns the target IRAK4 (Homo sapiens (Human), UniProt Q9NWZ3). The test can be described thus: IRAK4 Kinase Assay (IMAP fluorescence polarization). In kind it is biochemical. Particulars: 0.5 nM GST tagged IRAK4, 100 μM ATP, 100 nM fluorescent peptide substrate RP7030, 30 minutes at 25° C. The gist of the method: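 GST-tagged IRAK4 (0.5 nM) phosphorylates 100 nM fluorescent peptide with 100 μM ATP in 10 mM Tris pH 7.2, 1 mM MgCl2, 1 mM DTT, 0.01% Tween 20 for 30 min at 25 °C. Phosphorylation read as IMAP nanoparticle-binding fluorescence polarization after stop reagent.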
In general terms: Polarisation of emitted light reports the rotation of a fluorescent probe.
The term pIC50 denotes the negative decadic logarithm of the IC50, by convention in mol/L. Read a low pIC50 as a high IC50. With `Cc1c(-c2ccncc2)ccc2ncnc(N[C@H]3CC[C@H](N4CCOCC4)CC3)c12` [Example 1-78, 5-methyl-N-(trans-4-morpholin-4-ylcyclohexyl)-6-pyridin-4-ylquinazolin-4-amine], the pIC50 is 6.36.

`Cc1c(-c2cncc(O)c2)ccc2ncnc(N[C@H]3CC[C@H](N4CCOCC4)CC3)c12` [Example 1-79, 5-{5-methyl-4-[(trans-4-morpholin-4-ylcyclohexyl)amino]quinazolin-6-yl}pyridin-3-ol]: the negative-log IC50 (pIC50) was 7.42.

As to `Fc1cc2ncnc(N[C@H]3CC[C@H](N4CCOCC4)CC3)c2cc1-c1cn[nH]c1` [Example 1-80, 7-fluoro-N-(trans-4-morpholin-4-ylcyclohexyl)-6-(1H-pyrazol-4-yl)quinazolin-4-amine], the pIC50 is 8.70.

The molecule `CNc1cncc(-c2ccc3ncnc(N[C@H]4CC[C@H](N5CCOCC5)CC4)c3c2)c1` [Example 1-81, 6-[5-(methylamino)pyridin-3-yl]-N-(trans-4-morpholin-4-ylcyclohexyl)quinazolin-4-amine] showed a pIC50 of 8.70.

Molecule `c1nc(N[C@H]2CC[C@H](N3CCOCC3)CC2)c2cc(-c3cn[nH]c3)ccc2n1` [Example 1-82, N-(trans-4-morpholin-4-ylcyclohexyl)-6-(1H-pyrazol-4-yl)quinazolin-4-amine] had a pIC50 of 8.70.

With `Nc1cccc(-c2ccc3ncnc(N[C@H]4CC[C@H](N5CCOCC5)CC4)c3c2)c1` [Example 1-83, 6-(3-aminophenyl)-N-(trans-4-morpholin-4-ylcyclohexyl)quinazolin-4-amine], the pIC50 was 8.05.

Molecule `Oc1cncc(-c2cc3c(N[C@H]4CC[C@H](N5CCOCC5)CC4)ncnc3cc2F)c1` [Example 1-84, 5-{7-fluoro-4-[(trans-4-morpholin-4-ylcyclohexyl)amino]quinazolin-6-yl}pyridin-3-ol] showed a pIC50 of 9.00.

As to `Nc1cncc(-c2cc3c(N[C@H]4CC[C@H](N5CCOCC5)CC4)ncnc3cc2F)c1` [Example 1-85, 6-(5-aminopyridin-3-yl)-7-fluoro-N-(trans-4-morpholin-4-ylcyclohexyl)quinazolin-4-amine], the pIC50 is 8.00. This pIC50 is 1.00 log units lower than that of the molecule before.

Molecule `CNc1cncc(-c2cc3c(N[C@H]4CC[C@H](N5CCOCC5)CC4)ncnc3cc2F)c1` [Example 1-86, 7-fluoro-6-[5-(methylamino)pyridin-3-yl]-N-(trans-4-morpholin-4-ylcyclohexyl)quinazolin-4-amine] had a pIC50 of 7.64.

Turning to `Fc1cc2ncnc(N[C@H]3CC[C@H](N4CCOCC4)CC3)c2cc1-c1cncnc1` [Example 1-87, 7-fluoro-N-(trans-4-morpholin-4-ylcyclohexyl)-6-pyrimidin-5-ylquinazolin-4-amine], the pIC50 was 7.82.

For `c1cc(-c2ccc3ncnc(N[C@H]4CC[C@H](N5CCOCC5)CC4)c3c2)c2cc[nH]c2c1` [Example 1-88, 6-(1H-indol-4-yl)-N-[trans-4-(morpholin-4-yl)cyclohexyl]quinazolin-4-amine], the pIC50 was 7.00.

`Cc1ncc(-c2ccc3ncnc(N[C@H]4CC[C@H](N5CCOCC5)CC4)c3c2)cn1` [Example 1-89, 6-(2-methylpyrimidin-5-yl)-N-[trans-4-(morpholin-4-yl)cyclohexyl]quinazolin-4-amine] had a pIC50 of 7.74. This pIC50 lies 0.74 log units higher than the previous one.

Take `FC(F)(F)c1ncc(-c2ccc3ncnc(N[C@H]4CC[C@@H](N5CCOCC5)CC4)c3c2)cn1` [Example 1-90, N-[cis-4-(morpholin-4-yl)cyclohexyl]-6-[2-(trifluoromethyl)pyrimidin-5-yl]quinazolin-4-amine]: the pIC50 was 6.77.

In the case of `c1nc(N[C@H]2CC[C@H](N3CCOCC3)CC2)c2cc(-c3cc[nH]n3)ccc2n1` [Example 1-91, N-[trans-4-(morpholin-4-yl)cyclohexyl]-6-(1H-pyrazol-3-yl)quinazolin-4-amine], the pIC50 was 7.70.

On to `CS(=O)(=O)Nc1cncc(-c2ccc3ncnc(N[C@H]4CC[C@H](N5CCOCC5)CC4)c3c2)c1` [Example 1-92, N-[5-(4-{[trans-4-(morpholin-4-yl)cyclohexyl]amino}quinazolin-6-yl)pyridin-3-yl]methanesulfonamide], for which the pIC50 was 7.62.
